In publication PMC7561186, “Rational design of balanced dual-targeting antibiotics with limited resistance” (PLoS Biology, 2020):
Where “and” joins values, the source holds several entries; their conditions need not be identical. Identical values can stand only once.

Assays:
[1] = tested on: Neisseria gonorrhoeae; assay: MIC, broth microdilution (CLSI); assay type: cell-based
Experimental: (§1) MICs were determined using a standard serial broth microdilution technique according to the CLSI guidelines. Briefly, bacterial strains were inoculated onto MHBII agar plates and were grown overnight at 37 °C. Next, 3 individual colonies from each strain were inoculated into 1 mL MHBII medium and propagated at 37 °C, 250 rpm overnight. In the cases of Enterococcus and Streptococcus sp., cells were plated to BHI agar plates, and BHI broth was used to determine MICs. […] Following dilutions, each well was seeded with 5×10^4 bacterial cells. All measurements were performed in 3 parallel replicates and to avoid possible edge effects in microwell plates, side rows (A and H) were filled with sterile medium. Following inoculations, plates were covered with lids and wrapped in polyethylene plastic bags to minimize evaporation but allow for O2 transfer. Plates were incubated at 37 °C under continuous shaking at 150 rpm for 18 hours. After incubation, OD600 of each well was measured using a BioTek Synergy 2 microplate reader.

[2] = tested on: Acinetobacter baumannii; assay: MIC, broth microdilution (CLSI); assay type: cell-based
Experimental: as §1

[3] = tested on: Clostridium difficile; assay: MIC, broth microdilution (CLSI); assay type: cell-based
Experimental: as §1

[4] = tested on: Helicobacter pylori; assay: MIC, broth microdilution (CLSI); assay type: cell-based; details: Helicobacter pylori ATCC 43504
Experimental: as §1

[5] = tested on: Klebsiella pneumoniae; assay: MIC, broth microdilution (CLSI); assay type: cell-based; details: Klebsiella pneumoniae ATCC 10031
Experimental: as §1

[6] = tested on: Streptococcus pneumoniae; assay: MIC, broth microdilution (CLSI); assay type: cell-based
Experimental: as §1

[7] = tested on: Listeria monocytogenes; assay: MIC, broth microdilution (CLSI); assay type: cell-based; details: Listeria monocytogenes ATCC 19111
Experimental: as §1

[8] = tested on: Staphylococcus aureus; assay: MIC, broth microdilution (CLSI); assay type: cell-based
Experimental: as §1

[9] = tested on: HepG2 cells; details: LDH assay
Experimental: (§2) Cytotoxicity of compounds on HepG2 and MCF-7 mammalian cell lines was determined by using a standard LDH assay. Briefly, HepG2 and MCF-7 cells were cultured in Eagle’s MEM medium (from Gibco) supplemented with 2 mM L-glutamine (Sigma), 100 U/mL penicillin (Sigma), and 100 μg/mL streptomycin (Sigma), and 10% FBS (Gibco) at 37 °C and under 5% CO2. Next, LDH assays were performed according to manufacturer instructions (Thermo Fisher Scientific, Massachusetts, USA). By using a CyQUANT LDH Cytotoxicity Assay Kit. Firstly, the cells were seeded in 96-well microtiter plates at 10^5 cells/mL (100 μL/well) and allowed to attach overnight. […] Lysis buffer (10 μL, Thermo Fisher Scientific) was then added to the maximal LDH activity control wells and incubated additional 45 minutes. The cell culture supernatant (50 μL) was then transferred to a new 96-well plate and mixed with 50 μL of the reaction mixture. After 30 minutes on room temperature, reactions were stopped with 50 μL of the Stop solution. Absorbance (490 nm and 680 nm) was measured with the automatic microplate reader Synergy 4 Hybrid Microplate Reader (BioTek, VT, USA). All experiments were performed in triplicates and repeated 3 times. Statistical significance (P < 0.05) was calculated with 2-tailed Welch’s t-test between treated groups and DMSO. The percentage of cytotoxicity was determined according to the following equation: %Cytotoxicity=(CompoundtreatedLDHactivity-SpontaneousLDHactivity/MaximumLDHactivity-SpontaneousLDHactivity)*100

[10] = tested on: human red blood cells; assay: Haemolysis analysis; details: for LDH activity: human red blood cells, 100 µg/mL; for hemolytic activity on human red blood cells: in words
Experimental: Next, 600 μl of this EDTA-treated blood was washed in TBS buffer (10 mM TRIS, 150 mM NaCl [pH 7.2]) and centrifuged at 1,500 g for 1 minute until the supernatant became colorless. The aliquot of the final pellet (200 μL) was diluted to 5 mL with TBS buffer. […] Next, 100 μL of red blood cell suspension was pipetted into sterile Eppendorf tubes together with 100 μL of 2-fold serial dilution of the compounds (final concentration ranged between 100 μg/mL–0.1 μg/mL in a final volume of 200 μL). The plate was incubated for one hour at 37 °C followed by centrifugation at 1,500 g for 1 minute to sediment all red blood cells. Next, all supernatants were subjected to LDH and Haemolysis-Icterus-Lipaemia (HIL) index determination on a Roche Modular P800 analyzer according to the manufacturer’s instructions. After completion of this step the rest of the supernatants were transferred to sterile 96-well plates for the measurement of their optical density at 560-nm wavelength (in a Multiskan FC microplate reader, Thermo Scientific). Melittin (Bachem) at a concentration of 50 μg/mL, and TBS and 10% DMSO/TBS were served as positive (100% hemolysis) and negative (no hemolysis) controls, respectively.

[11] = tested on: human hERG potassium ion channel; details: for inhibitory effect on human hERG ion channels: 150 μM, in words; for Significant (hERG inhibition) / Normalized inhibition (%): 150 µM, hERG; for Normalized inhibition (%): n = 8
Experimental: Inhibition of the human hERG cardiac K+ ion channel was determined by Eurofins Panlabs (St. Charles, MO, USA) by using QPatch automated whole-cell patch-clamp electrophysiology, as described previously. […] During measurements, after whole-cell patch configuration was achieved, the cells were held at −80 mV. Next, a 500-millisecond pulse to −40 mV was delivered to measure the leaking current, which was then subtracted from the tail current’s readout. Then the cell was depolarized to +40 mV for 500 milliseconds and then to −80 mV over a 100-millisecond ramp to elicit the hERG tail current. This workflow was repeated once in every 8 seconds to monitor the current amplitude. The parameters measured during each test were the maximum tail current evoked on stepping to 40 mV and ramping back to −80 mV from the test pulse. All data were filtered for seal quality, seal drop, and current amplitude. The peak current amplitude was calculated before and after compound addition, and the amount of inhibition was assessed by dividing the test compound’s current amplitude by the control’s current amplitude. During our tests, the control was the mean hERG current amplitude collected 15 seconds at the end of each measurement, and the test compound was the mean hERG current amplitude collected in the presence of test compound at the given concentration.

[12] = in vitro; details: human
Experimental: as §2

[13] = tested on: S. aureus ATCC 700699 and S. aureus ATCC 43300; assay: Spontaneous frequency-of-resistance assay; assay type: cell-based; details: for mutant prevention concentration (MPC): S. aureus ATCC 700699 (VISA), estimate
Experimental: Prior to plating, bacteria were grown overnight in MHBII medium at 37 °C, 250 rpm, collected by centrifugation, and washed once in equal volumes of MHBII broth. From this concentrated cell suspension (250 μL), approximately 10^10 cells were then plated to each MHBII agarose plates. […] All experiments were performed in at least 3 replicates. Plates were grown at 37 °C for 72 hours. Total CFUs were determined simultaneously in each experiment by plating appropriate dilutions to antibiotic-free MHBII agar plates. Finally, resistance frequencies for each strain were calculated by dividing the number of colonies formed after a 72-hour incubation at 37 °C by the initial viable cell count.

[14] = CCUG57598, Neisseria gonorrhoeae CCUG 57598
[15] = Neisseria gonorrhoeae ATCC 700825
[16] = Neisseria gonorrhoeae CCUG 57598
[17] = ATCC19606, Acinetobacter baumannii ATCC 19606
[18] = Acinetobacter baumannii ATCC 17978
[19] = Acinetobacter baumannii ATCC 19606
[20] = Clostridioides difficile, BAA1875
[21] = Streptococcus pneumoniae ATCC 49619
[22] = Streptococcus pneumoniae ATCC 51916
[23] = Streptococcus pneumoniae ATCC 700673
[24] = Staphylococcus aureus (strain not given), MRSA (SCCmec type IV), Oxacillin-R, VSSA, Cephalosporin-R, Erythromycin-R
[25] = Staphylococcus aureus ATCC 29213
[26] = Staphylococcus aureus ATCC 33594, MSSA, VSSA
[27] = Staphylococcus aureus ATCC 43300, MRSA
[28] = Staphylococcus aureus ATCC 700699 (Mu50, NRS1), MRSA, VISA
[29] = Staphylococcus aureus CDC AR-BANK 0218, MRSA, VISA
[30] = Staphylococcus aureus ECL 2963646, MRSA, VRSA
[31] = Staphylococcus aureus NRS271, MRSA, Linezolid-R
[32] = Staphylococcus aureus USA300, ATCC BAA-1717, MRSA
[33] = Staphylococcus aureus USA400, BAA-1707, NRS123, MRSA
[34] = Staphylococcus aureus, ATCC 700699 / MRSA / NRS 1 / VISA, S. aureus ATCC 700699 (Mu50, NRS1), MRSA, VISA
[35] = Staphylococcus aureus, S. aureus ECL 2963646, MRSA, VRSA
[36] = Staphylococcus aureus (MRSA) ATCC 43300, 2xMIC
[37] = Staphylococcus aureus (MRSA) ATCC 43300, 4xMIC
[38] = Staphylococcus aureus (MRSA) ATCC 43300, 8xMIC
[39] = Staphylococcus aureus (VISA) ATCC 700699, 2xMIC
[40] = Staphylococcus aureus (VISA) ATCC 700699, 4xMIC
[41] = Staphylococcus aureus (VISA) ATCC 700699, 8xMIC

## Cc1[nH]c(C(=O)Nc2nc3ccc(C(=O)O)cc3s2)c(Cl)c1Cl [ULD1]
[1]; [14]
  MIC: ≤ 0.0312 µg/mL
[1]; [15]
  MIC: < 0.0312 µg/mL
[1]; [16]
  MIC: < 0.0312 µg/mL
[2]; [17]
  MIC: 2 µg/mL
[2]; [18]
  MIC: 4 µg/mL
[2]; [19]
  MIC: 2 µg/mL
[3]; [20]
  MIC: ≤ 0.0312 µg/mL
[3]; Clostridium difficile BAA-1875
  MIC: < 0.0312 µg/mL
[4]
  MIC: 4 µg/mL
[5]; ATCC10031
  MIC: 1 µg/mL
[5]
  MIC: 1 µg/mL
[6]; [21]
  MIC: 0.25 µg/mL
[6]; [22]
  MIC: 0.5 µg/mL
[6]; [23]
  MIC: 0.5 µg/mL
[7]; ATCC19111
  MIC: 0.125 µg/mL
[7]
  MIC: 0.125 µg/mL
[8]; [24]
  MIC: 1 µg/mL
[8]; [25]
  MIC: 1 µg/mL
[8]; [26]
  MIC: 0.5 µg/mL
[8]; [27]
  MIC: 0.125 µg/mL
[8]; [28]
  MIC: 0.0625 µg/mL
[8]; [29]
  MIC: 1 µg/mL
[8]; [30]
  MIC: 0.125 µg/mL
[8]; [31]
  MIC: 1 µg/mL
[8]; [32]
  MIC: 0.5 µg/mL
[8]; [33]
  MIC: 0.5 µg/mL
[8]; [34]
  MIC: 0.0625 µg/mL
[8]; [35]
  MIC: 0.125 µg/mL
[9]
  Max. % inhibition at 100 µM: Max. % inhibition at 100 µM: 1.53%
[10]
  LDH activity: 40 Unit/mL
  hemolytic activity on human red blood cells: no biocompatibility concerns
[11]
  inhibitory effect on human hERG ion channels: No statistically significant inhibitory effect
  Significant (hERG inhibition): No (Only results showing an inhibition higher than 50% are considered to represent significant effects of the tested compounds)
  Normalized inhibition (%): 5.5%
[12]
  IC50: > 100 µM
[13]
  mutant prevention concentration (MPC): 0.16 µg/mL
[13]; [36]
  Spontaneous frequency-of-resistance (replicates): 2e-9 and 2.769e-9 and 5.333e-10 and 1.1e-9 and 1.263e-9 and 2.587e-9 and 2.787e-9 and 2.50E-09 and 3.14E-09 and 4.80E-09
[13]; [37]
  Spontaneous frequency-of-resistance (replicates): 9.286e-10 and 7.692e-10 and 1.333e-10 and 5e-10 and 9.868e-10 and 1.045e-9 and 7.377e-10 and 1.30E-09 and 9.54E-10 and 1.09E-08 and 7.14E-11
[13]; [38]
  Spontaneous frequency-of-resistance (replicates): 1.00E-12
[13]; [39]
  Spontaneous frequency-of-resistance (replicates): 2.06e-9 and 1.815e-9 and 2.326e-9 and 1.86e-9 and 1.40E-09 and 7.33E-10 and 2.00E-09 and 1.64E-09 and 3.594e-9 and 2.426e-9
[13]; [40]
  Spontaneous frequency-of-resistance (replicates): 1.00E-12 and 3.109e-10 and 2.252e-10 and 3.243e-10 and 3.9801e-10 and 2.304e-10 and 2.871e-10 and 1.676e-10
[13]; [41]
  Spontaneous frequency-of-resistance (replicates): 1.00E-12
[13]; exposure at 8-fold the wild-type MIC, S. aureus, in words
  resistant variants detected: no resistant variants of S. aureus have been detected

## Cc1[nH]c(C(=O)Nc2nc3c(OCc4ccccc4)cc(C(=O)O)cc3s2)c(Cl)c1Cl [ULD2]
[1]; [14]
  MIC: ≤ 0.0312 µg/mL
[1]; [15]
  MIC: < 0.0312 µg/mL
[1]; [16]
  MIC: < 0.0312 µg/mL
[2]; [17]
  MIC: 0.5 µg/mL
[2]; [18]
  MIC: 2 µg/mL
[2]; [19]
  MIC: 0.5 µg/mL
[3]; [20]
  MIC: ≤ 0.0312 µg/mL
[3]; Clostridium difficile BAA-1875
  MIC: < 0.0312 µg/mL
[4]
  MIC: 4 µg/mL
[5]; ATCC10031
  MIC: 4 µg/mL
[5]
  MIC: 4 µg/mL
[6]; [21]
  MIC: 0.25 µg/mL
[6]; [22]
  MIC: 0.25 µg/mL
[6]; [23]
  MIC: 0.25 µg/mL
[7]; ATCC19111
  MIC: 0.125 µg/mL
[7]
  MIC: 0.125 µg/mL
[8]; [24]
  MIC: 0.063 µg/mL
[8]; [25]
  MIC: 0.5 µg/mL
[8]; [26]
  MIC: 0.125 µg/mL
[8]; [27]
  MIC: 0.0625 µg/mL
[8]; [28]
  MIC: < 0.0312 µg/mL
[8]; [29]
  MIC: 0.125 µg/mL
[8]; [30]
  MIC: < 0.0312 µg/mL
[8]; [31]
  MIC: 0.25 µg/mL
[8]; [32]
  MIC: 0.063 µg/mL
[8]; [33]
  MIC: 0.125 µg/mL
[8]; [34]
  MIC: ≤ 0.0312 µg/mL
[8]; [35]
  MIC: ≤ 0.0312 µg/mL
[9]
  Max. % inhibition at 100 µM: Max. % inhibition at 100 µM: 1.96%
[10]
  LDH activity: 10 Unit/mL
  hemolytic activity on human red blood cells: no biocompatibility concerns
[11]
  inhibitory effect on human hERG ion channels: No statistically significant inhibitory effect
  Significant (hERG inhibition): No (Only results showing an inhibition higher than 50% are considered to represent significant effects of the tested compounds)
  Normalized inhibition (%): 27%
[12]
  IC50: > 100 µM
[13]; 4×10^12 S. aureus ATCC 700699 (VISA) cells, 4 times the wild-type MIC, in words
  resistant mutants emerged: no ULD2 resistant mutants have emerged
[13]
  mutant prevention concentration (MPC): 0.08 µg/mL
[13]; [36]
  Spontaneous frequency-of-resistance (replicates): 1.00E-12 and 1.529e-10 and 1.99e-10 and 7.692e-11 and 9.00E-10 and 1.80E-09 and 1.43E-10
[13]; [37]
  Spontaneous frequency-of-resistance (replicates): 5.00E-11 and 1.67E-10 and 7.14E-11 and 1.00E-12
[13]; [38]
  Spontaneous frequency-of-resistance (replicates): 1.00E-12
[13]; [39]
  Spontaneous frequency-of-resistance (replicates): 1.00E-12 and 8.77E-11
[13]; [40]
  Spontaneous frequency-of-resistance (replicates): 1.00E-12
[13]; [41]
  Spontaneous frequency-of-resistance (replicates): 1.00E-12
